Results as given in patent US20210156844A1, “TMEM16A Modulation for Diagnostic or Therapeutic Use in Pulmonary Hypertension (PH)” (Bayer Aktiengesellschaft, priority 2017, published 2021).

What was measured:
[1] = molecular target: T1, TMEM16A (Homo sapiens, UniProt Q5XXA6); test: Measurement of whole-cell Ca2+-activated Cl- current (IClCa), voltage clamp, primary PASMC; type: cell-based; conditions: benzbromarone 30 μM; primary PASMC of both donors and IPAH patients
T1 construct: endogenous in cells; host or cells: primary human PASMC from healthy donors and IPAH patients
T1 sequence (Q5XXA6 1-986): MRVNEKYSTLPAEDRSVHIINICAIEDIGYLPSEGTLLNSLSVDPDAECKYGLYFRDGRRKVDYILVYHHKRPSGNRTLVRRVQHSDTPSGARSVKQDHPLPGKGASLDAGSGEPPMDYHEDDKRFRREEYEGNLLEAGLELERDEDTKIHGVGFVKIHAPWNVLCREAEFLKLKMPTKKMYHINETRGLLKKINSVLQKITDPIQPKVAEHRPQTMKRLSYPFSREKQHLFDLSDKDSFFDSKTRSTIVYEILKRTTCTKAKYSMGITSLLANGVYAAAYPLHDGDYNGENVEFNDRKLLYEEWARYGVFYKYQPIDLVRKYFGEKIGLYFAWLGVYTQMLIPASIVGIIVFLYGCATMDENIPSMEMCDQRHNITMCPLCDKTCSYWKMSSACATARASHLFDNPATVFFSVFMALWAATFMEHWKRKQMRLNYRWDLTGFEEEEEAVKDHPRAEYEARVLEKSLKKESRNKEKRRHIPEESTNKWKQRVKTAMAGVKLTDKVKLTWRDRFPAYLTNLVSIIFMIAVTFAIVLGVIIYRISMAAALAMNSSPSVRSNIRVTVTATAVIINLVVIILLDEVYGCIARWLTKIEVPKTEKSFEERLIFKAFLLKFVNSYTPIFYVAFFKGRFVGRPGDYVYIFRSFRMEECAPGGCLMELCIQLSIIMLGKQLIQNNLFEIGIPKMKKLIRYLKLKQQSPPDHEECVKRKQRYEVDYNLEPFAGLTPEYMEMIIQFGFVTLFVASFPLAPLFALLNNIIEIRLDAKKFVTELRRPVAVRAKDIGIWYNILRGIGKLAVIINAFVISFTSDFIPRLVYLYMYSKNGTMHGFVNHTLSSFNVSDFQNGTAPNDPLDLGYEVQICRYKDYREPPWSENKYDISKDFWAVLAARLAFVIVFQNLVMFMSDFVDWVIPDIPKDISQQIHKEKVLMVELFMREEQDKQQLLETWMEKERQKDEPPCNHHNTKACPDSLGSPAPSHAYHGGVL
Description: For the measurement of whole-cell IClCa, PASMC grown in T-25 tissue culture flasks were freshly harvested with StemPro Accutase (Life Technologies), centrifuged (300 g, 5 min) and resuspended in Complete SMC Medium. PASMC were stored at 4° C. until use and were allowed to attach to glass coverslips for 15-30 min at room temperature before the measurements. Cells were perfused with a bath solution composed of (in mM) NaCl 150, glucose 10, HEPES 10, CaCl2 1, MgCl2 1, pH 7.4 (NaOH). The pipette solution contained (in mM) CsCl 110, TEA-Cl 20, EGTA 5, HEPES 10, Na2ATP 1, CaCl2 4.68, MgCl2 1, pH 7.2 (NaOH). The free Ca^2+ concentration of this solution was 2 μM as calculated with the MaxChelator software. In order to minimize K^+ current contamination of the recordings, after the formation of whole-cell configuration the bath solution was switched to a bath composed of (in mM) NaCl 140, glucose 10, HEPES 10, TEA-Cl 10, CaCl2 1, MgCl2 1, pH 7.4 (NaOH). In order to measure IClCa, the command potential was stepped from a 0 mV holding potential to −40, 0, +40, +80 and +120 mV for 1.5 s, allowing 0.5 s recovery time at the holding potential between each step. The average current measured between 750 and 1500 ms of each voltage step was plotted against the […]. […] Cells from the same batch that were cultured, harvested and recorded under normoxic conditions served as controls.

[2] = tested on: U-46619 preconstricted isolated mouse PA; test: Measurement of pulmonary artery tone ex vivo
Description: Pulmonary artery rings were isolated from male C57BL/6J mice (20-25 weeks old, Charles River, Wilmington Mass., USA), as described by Jain et al. (Jain, P P, et al., Int. J. Nanomedicine (2014) 9, 3249-3261). Following stable contraction (approx. 30 minutes post-addition of U-46619, 30 nM), the arteries were subjected to cumulatively increasing concentrations (0.1 to 30 μM) of the TMEM6A blockers T16Ainh-A01 (Tocris) and benzbromarone (Sigma) in order to analyze the concentration-response relationships.

[3] = tested on: monocrotaline (MCT)-treated rats; test: Acute hemodynamic effects of benzbromarone in monocrotaline (MCT)-treated rats; type: in vivo, rat; conditions: single i.v. bolus of 300 μM
Description: Male Sprague-Dawley rats (body weight: approx. 250 g, Charles River) received a single subcutaneous injection of monocrotaline (MCT, 60 mg/kg, n=16) or vehicle (control group, n=8). Since significant RVSP increase and PA muscularization had been detected as early as 12 days after the injection of MCT58, two weeks after monocrotaline treatment rats were randomly ordered into two groups. Subcutaneous slow-release pellets (Innovative Research of America) that contained either benzbromarone (MCT+BBR, n=8) or vehicle (MCT+Veh, n=8) were implanted. Four weeks after monocrotaline treatment all rats were subjected to echocardiography and in vivo hemodynamic measurements, thereafter they were sacrificed for organ collection. In rats, in vivo hemodynamic measurements were conducted as described above for the mice, with the exception that for the right ventricular and the systolic blood pressures, 2 F Millar Catheters (SPR-513 and SPR-320, respectively) were used. The above described control and MCT+Veh groups were included in this study. Benzbromarone was injected into the left jugular vein as a single bolus ([…], i.v. in 100 μl saline) and pressures were monitored until a maximum effect was observed (approx. 10 minutes).

Question: `CCc1oc2ccccc2c1C(=O)c1cc(Br)c(O)c(Br)c1` [benzbromarone, (2-Ethyl-3-benzofuranyl)-(3,5-dibrom-4-hydroxyphenyl)ketone] was tested. Which “whole-cell IClCa” value [1] did it give?
Answer: significantly decreased

Question: What about the “vasorelaxation of preconstricted PA” value ([2]; cumulatively increasing concentrations 0.1 to 30 μM, U-46619 30 nM) of the same molecule?
Answer: dose-dependent vasorelaxation

Question: And the “potency compared with T16Ainh-A01” value ([2]; ex vivo PA vasodilator response)?
Answer: more potent

Question: What about the RVSP ([3]; MCT-treated rats) of the same molecule?
Answer: significant decrease

Question: And the “RVSP in the control animals” value ([3]; vehicle-treated control rats)?
Answer: without affecting
